Results taken from patent US11279681B2, “3-alkyl bicyclic [4,5,0] hydroxamic acids as HDAC inhibitors” (Valo Health, Inc., priority 2015, dated 2022).

biological target: T1, HDAC6 (Homo sapiens, UniProt Q9UBN7); assay: In vitro histone deacetylase assay: enzymatic HDAC6 electrophoretic mobility shift assay; assay type: biochemical; conditions: full length human recombinant HDAC6, 1 nM enzyme, 2 μM peptide substrate RHKK(Ac)-NH2, 25° C.; read-out: Inhibitory Concentration (IC50) Values for Representative Compounds against HDAC6, Activity Range
T1 sequence (Q9UBN7 1-1215): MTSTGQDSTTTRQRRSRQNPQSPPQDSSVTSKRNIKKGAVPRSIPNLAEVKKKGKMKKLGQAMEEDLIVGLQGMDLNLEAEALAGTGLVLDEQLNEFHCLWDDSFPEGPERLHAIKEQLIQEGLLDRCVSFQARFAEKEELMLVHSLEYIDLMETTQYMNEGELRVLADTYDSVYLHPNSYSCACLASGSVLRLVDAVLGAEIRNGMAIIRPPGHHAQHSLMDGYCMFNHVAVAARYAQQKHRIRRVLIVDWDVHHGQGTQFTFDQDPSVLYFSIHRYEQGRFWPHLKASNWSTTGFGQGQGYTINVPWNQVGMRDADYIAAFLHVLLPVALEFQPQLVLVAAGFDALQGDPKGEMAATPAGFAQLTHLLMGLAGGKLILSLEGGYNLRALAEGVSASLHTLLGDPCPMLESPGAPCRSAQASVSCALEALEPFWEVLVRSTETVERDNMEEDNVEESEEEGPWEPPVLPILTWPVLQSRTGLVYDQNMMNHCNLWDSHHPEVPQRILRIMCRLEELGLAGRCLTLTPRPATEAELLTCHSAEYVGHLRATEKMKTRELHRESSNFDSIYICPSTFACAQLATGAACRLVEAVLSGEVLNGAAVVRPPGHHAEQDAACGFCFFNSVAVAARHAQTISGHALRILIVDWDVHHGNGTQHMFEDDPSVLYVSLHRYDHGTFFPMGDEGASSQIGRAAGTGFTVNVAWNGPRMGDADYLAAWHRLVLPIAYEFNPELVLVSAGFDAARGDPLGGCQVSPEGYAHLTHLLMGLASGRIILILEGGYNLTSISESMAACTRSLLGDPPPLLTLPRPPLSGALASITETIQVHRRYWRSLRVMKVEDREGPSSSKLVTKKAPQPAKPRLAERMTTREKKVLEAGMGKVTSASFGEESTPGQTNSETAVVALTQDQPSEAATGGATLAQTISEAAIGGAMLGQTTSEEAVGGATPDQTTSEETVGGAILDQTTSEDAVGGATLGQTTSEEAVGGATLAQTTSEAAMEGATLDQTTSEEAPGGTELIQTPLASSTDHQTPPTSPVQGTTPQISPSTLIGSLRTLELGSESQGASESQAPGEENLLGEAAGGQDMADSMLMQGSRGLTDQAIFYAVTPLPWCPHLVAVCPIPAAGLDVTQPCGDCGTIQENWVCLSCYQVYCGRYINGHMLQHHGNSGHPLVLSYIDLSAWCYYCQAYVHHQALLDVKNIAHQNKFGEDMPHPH

IC50 | Compound
≤ 0.1 µM | CC1(C)COc2cc(C(=O)NO)ccc2CN1 [N-hydroxy-3,3-dimethyl-2,3,4,5-tetrahydrobenzo[f][1,4]oxazepine-8-carboxamide]
0.1 to 0.5 µM | COCCN1CCOc2cc(C(=O)NO)ccc2C1 [N-hydroxy-4-(2-methoxyethyl)-2,3,4,5-tetrahydrobenzo[f][1,4]oxazepine-8-carboxamide]
≤ 0.1 µM | CC1CCCCN1C(=O)N1CCOc2cc(C(=O)NO)ccc2C1 (stereo not shown) [N-hydroxy-4-(2-methylpiperidine-1-carbonyl)-2,3,4,5-tetrahydrobenzo[f][1,4]oxazepine-8-carboxamide]
0.1 to 0.5 µM | CC1COCCN1C(=O)N1CCOc2cc(C(=O)NO)ccc2C1 (stereo not shown) [N-hydroxy-4-(3-methylmorpholine-4-carbonyl)-2,3,4,5-tetrahydrobenzo[f][1,4]oxazepine-8-carboxamide]
≤ 0.1 µM | COc1ccc(CN2Cc3ccc(C(=O)NO)cc3OCC23CC3)cc1 [N-hydroxy-4-(4-methoxybenzyl)-4,5-dihydro-2H-spiro[benzo[f][1,4]oxazepine-3,1′-cyclopropane]-8-carboxamide]
0.1 to 0.5 µM | COC1CCN(C(=O)N2CCOc3cc(C(=O)NO)ccc3C2)CC1 [N-hydroxy-4-(4-methoxypiperidine-1-carbonyl)-2,3,4,5-tetrahydrobenzo[f][1,4]oxazepine-8-carboxamide]
> 0.5 µM | CN1CCN(C(=O)N2CCOc3cc(C(=O)NO)ccc3C2)CC1 [N-hydroxy-4-(4-methylpiperazine-1-carbonyl)-2,3,4,5-tetrahydrobenzo[f][1,4]oxazepine-8-carboxamide]
≤ 0.1 µM | O=C(NO)c1ccc2c(c1)OCCN(C(=O)N1Cc3ccccc3C1)C2 [N-hydroxy-4-(isoindoline-2-carbonyl)-2,3,4,5-tetrahydrobenzo[f][1,4]oxazepine-8-carboxamide]
0.1 to 0.5 µM | O=C(NO)c1ccc2c(c1)OCCN(C(=O)N1CCOCC1)C2 [N-hydroxy-4-(morpholine-4-carbonyl)-2,3,4,5-tetrahydrobenzo[f][1,4]oxazepine-8-carboxamide]
0.1 to 0.5 µM | Cc1ccc(N2CCOc3cc(C(=O)NO)ccc3C2)cc1 [N-hydroxy-4-(p-tolyl)-2,3,4,5-tetrahydrobenzo[f][1,4]oxazepine-8-carboxamide]
0.1 to 0.5 µM | O=C(NO)c1ccc2c(c1)OCCN(c1ccccn1)C2 [N-hydroxy-4-(pyridin-2-yl)-2,3,4,5-tetrahydrobenzo[f][1,4]oxazepine-8-carboxamide]
0.1 to 0.5 µM | O=C(NO)c1ccc2c(c1)OCCN(c1cccnc1)C2 [N-hydroxy-4-(pyridin-3-yl)-2,3,4,5-tetrahydrobenzo[f][1,4]oxazepine-8-carboxamide]
> 0.5 µM | O=C(NO)c1ccc2c(c1)OCCN(c1ccncc1)C2 [N-hydroxy-4-(pyridin-4-yl)-2,3,4,5-tetrahydrobenzo[f][1,4]oxazepine-8-carboxamide]
≤ 0.1 µM | O=C(NO)c1ccc2c(c1)OCCN(C(=O)N1CCCC1)C2 [N-hydroxy-4-(pyrrolidine-1-carbonyl)-2,3,4,5-tetrahydrobenzo[f][1,4]oxazepine-8-carboxamide]
0.1 to 0.5 µM | CN1CCOc2cc(C(=O)NO)ccc2C1 [N-hydroxy-4-methyl-2,3,4,5-tetrahydrobenzo[f][1,4]oxazepine-8-carboxamide]
≤ 0.1 µM | CN1Cc2ccc(C(=O)NO)cc2OCC12CC2 [N-hydroxy-4-methyl-4,5-dihydro-2H-spiro[benzo[f][1,4]oxazepine-3,1′-cyclopropane]-8-carboxamide]
> 0.5 µM | O=C(NO)c1ccc2c(c1)OCCN(c1ccccc1)C2 [N-hydroxy-4-phenyl-2,3,4,5-tetrahydrobenzo[f][1,4]oxazepine-8-carboxamide]
0.1 to 0.5 µM | O=C(NO)c1ccc2c(c1)OCC1(CC1)N(c1ccccc1)C2 [N-hydroxy-4-phenyl-4,5-dihydro-2H-spiro[benzo[f][1,4]oxazepine-3,1′-cyclopropane]-8-carboxamide]
≤ 0.1 µM | C[C@H]1COc2cc(C(=O)NO)ccc2CN1C(=O)OC1CCC1 [cyclobutyl(S)-8-(hydroxycarbamoyl)-3-methyl-2,3-dihydrobenzo[f][1,4]oxazepine-4(5H)-carboxylate]
≤ 0.1 µM | C[C@H]1COc2cc(C(=O)NO)ccc2CN1C(=O)OC1CCCCC1 [cyclohexyl(S)-8-(hydroxycarbamoyl)-3-methyl-2,3-dihydrobenzo[f][1,4]oxazepine-4(5H)-carboxylate]
≤ 0.1 µM | C[C@H]1COc2cc(C(=O)NO)ccc2CN1C(=O)OC1CCCC1 [cyclopentyl(S)-8-(hydroxycarbamoyl)-3-methyl-2,3-dihydrobenzo[f][1,4]oxazepine-4(5H)-carboxylate]
≤ 0.1 µM | CCOC(=O)N1Cc2ccc(C(=O)NO)cc2OC[C@@H]1C [ethyl(S)-8-(hydroxycarbamoyl)-3-methyl-2,3-dihydrobenzo[f][1,4]oxazepine-4(5H)-carboxylate]
≤ 0.1 µM | CC(C)OC(=O)N1Cc2ccc(C(=O)NO)cc2OC[C@@H]1C [isopropyl(S)-8-(hydroxycarbamoyl)-3-methyl-2,3-dihydrobenzo[f][1,4]oxazepine-4(5H)-carboxylate]
≤ 0.1 µM | COC(=O)N1Cc2ccc(C(=O)NO)cc2OC[C@@H]1C [methyl(S)-8-(hydroxycarbamoyl)-3-methyl-2,3-dihydrobenzo[f][1,4]oxazepine-4(5H)-carboxylate]
≤ 0.1 µM | C[C@H]1COc2cc(C(=O)NO)ccc2CN1C(=O)OC1CCOCC1 [tetrahydro-2H-pyran-4-yl(S)-8-(hydroxycarbamoyl)-3-methyl-2,3-dihydrobenzo[f][1,4]oxazepine-4(5H)-carboxylate]
